Legend:
blackgrass = assay: Test B pre/postemergence blackgrass; format: in vivo, Alopecurus myosuroides; conditions: for Blackgrass plant response rating: scale of 0 to 10 where 0 is no effect and 10 is complete control
Summary of the method: (§1)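 Herbicidal effect was estimated by eye on a ten-point control scale after plants spent twelve to sixteen days in a greenhouse following soil or foliar treatment. Foliar sprays targeted plants at one to four leaves; all doses were formulated in a non-phytotoxic solvent with surfactant.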

cocklebur = assay: Test B pre/postemergence cocklebur; format: in vivo, Xanthium strumarium; conditions: for Cocklebur plant response rating: scale of 0 to 10 where 0 is no effect and 10 is complete control
Summary of the method: as §1

corn = assay: Test B pre/postemergence corn; format: in vivo, Zea mays; conditions: for Corn plant response rating: scale of 0 to 10 where 0 is no effect and 10 is complete control
Summary of the method: as §1

giant foxtail = assay: Test B pre/postemergence giant foxtail; format: in vivo, Setaria faberii; conditions: for Giant foxtail plant response rating: scale of 0 to 10 where 0 is no effect and 10 is complete control
Summary of the method: as §1

crabgrass = assay: Test B pre/postemergence crabgrass; format: in vivo, Digitaria sanguinalis; conditions: for Crabgrass plant response rating: scale of 0 to 10 where 0 is no effect and 10 is complete control
Summary of the method: as §1

rape = assay: Test B pre/postemergence rape; format: in vivo, Brassica napus; conditions: for Rape plant response rating: scale of 0 to 10 where 0 is no effect and 10 is complete control
Summary of the method: as §1

wheat = assay: Test B pre/postemergence wheat; format: in vivo, Triticum aestivum; conditions: for Wheat plant response rating: scale of 0 to 10 where 0 is no effect and 10 is complete control
Summary of the method: as §1

purple nutsedge = assay: Test B pre/postemergence purple nutsedge; format: in vivo, Cyperus rotundus; conditions: for Nutsedge plant response rating: scale of 0 to 10 where 0 is no effect and 10 is complete control
Summary of the method: as §1

morningglory = assay: Test B pre/postemergence morningglory; format: in vivo, Ipomoea hederacea; conditions: for Morningglory plant response rating: scale of 0 to 10 where 0 is no effect and 10 is complete control
Summary of the method: as §1

soybean = assay: Test B pre/postemergence soybean; format: in vivo, Glycine max; conditions: for Soybean plant response rating: scale of 0 to 10 where 0 is no effect and 10 is complete control
Summary of the method: as §1

wild oat = assay: Test B pre/postemergence wild oat; format: in vivo, Avena fatua; conditions: for Wild oats plant response rating: scale of 0 to 10 where 0 is no effect and 10 is complete control
Summary of the method: as §1

bedstraw = assay: Test B pre/postemergence bedstraw; format: in vivo, Galium aparine; conditions: Postemergence
Summary of the method: as §1

pigweed = assay: Test B pre/postemergence pigweed; format: in vivo, Amaranthus retroflexus; conditions: for Redroot pigweed plant response rating: scale of 0 to 10 where 0 is no effect and 10 is complete control
Summary of the method: as §1

velvetleaf = assay: Test B pre/postemergence velvetleaf; format: in vivo, Abutilon theophrasti; conditions: for Velvetleaf plant response rating: scale of 0 to 10 where 0 is no effect and 10 is complete control
Summary of the method: as §1

surinam grass = assay: Test B pre/postemergence surinam grass; format: in vivo, Brachiaria decumbens; conditions: for B. signalgrass plant response rating: scale of 0 to 10 where 0 is no effect and 10 is complete control
Summary of the method: as §1

[1] = Postemergence, Rate 125 g/ha, scale 0 to 10, 0 is no effect, 10 is complete control
[2] = Postemergence, Rate 250 g/ha, scale 0 to 10, 0 is no effect, 10 is complete control
[3] = Preemergence, Rate 62 g/ha, scale 0 to 10 (0 no effect, 10 complete control)
[4] = Rate 500 g/ha, Postemergence, scale 0 to 10, 0 no effect, 10 complete control

CC(C)N(C(=O)n1oc(=O)n(N2C(C)CCCC2C)c1=O)c1ccc(F)cc1 (centres unmarked) [Compound 382]
Plant response rating, Blackgrass (blackgrass; [1]): 0 | Plant response rating, Blackgrass (blackgrass; [2]): 2 | Plant response rating, Blackgrass (blackgrass; [3]): 0 | Blackgrass plant response rating (0 to 10 scale) (blackgrass; Preemergence, Rate 125 g/ha): 1 | Blackgrass plant response rating (blackgrass; Preemergence, Rate 250 g/ha): 3 | Blackgrass plant response rating (blackgrass; Preemergence, Rate 500 g/ha): 7 | Blackgrass plant response rating (blackgrass; Rate 62 g/ha, Postemergence): 0 | Plant response rating, Blackgrass (blackgrass; [4]): 2 | Plant response rating, Cocklebur (cocklebur; [1]): 0 | Plant response rating, Cocklebur (cocklebur; [2]): 0 | Plant response rating, Cocklebur (cocklebur; [3]): 0 | Cocklebur plant response rating (0 to 10 scale) (cocklebur; Preemergence, Rate 125 g/ha): 0 | Cocklebur plant response rating (cocklebur; Preemergence, Rate 250 g/ha): 0 | Cocklebur plant response rating (cocklebur; Rate 62 g/ha, Postemergence): 0 | Plant response rating, Cocklebur (cocklebur; [4]): 0 | Plant response rating, Corn (corn; [1]): 0 | Plant response rating, Corn (corn; [2]): 0 | Plant response rating, Corn (corn; [3]): 0 | Corn plant response rating (0 to 10 scale) (corn; Preemergence, Rate 125 g/ha): 0 | Corn plant response rating (corn; Preemergence, Rate 250 g/ha): 0 | Corn plant response rating (corn; Preemergence, Rate 500 g/ha): 2 | Corn plant response rating (corn; Rate 62 g/ha, Postemergence): 0 | Plant response rating, Corn (corn; [4]): 0 | Plant response rating, Giant foxtail (giant foxtail; [1]): 3 | Plant response rating, Giant foxtail (giant foxtail; [2]): 3 | Plant response rating, Giant foxtail (giant foxtail; [3]): 9 | Giant foxtail plant response rating (0 to 10 scale) (giant foxtail; Preemergence, Rate 125 g/ha): 9 | Giant foxtail plant response rating (giant foxtail; Preemergence, Rate 250 g/ha): 9 | Giant foxtail plant response rating (giant foxtail; Preemergence, Rate 500 g/ha): 10 | Giant foxtail plant response rating (giant foxtail; Rate 62 g/ha, Postemergence): 0 | Plant response rating, Giant foxtail (giant foxtail; [4]): 4 | Plant response rating, Crabgrass (crabgrass; [1]): 0 | Plant response rating, Crabgrass (crabgrass; [2]): 0 | Plant response rating, Crabgrass (crabgrass; [3]): 6 | Crabgrass plant response rating (0 to 10 scale) (crabgrass; Preemergence, Rate 125 g/ha): 7 | Crabgrass plant response rating (crabgrass; Preemergence, Rate 250 g/ha): 9 | Crabgrass plant response rating (crabgrass; Preemergence, Rate 500 g/ha): 10 | Crabgrass plant response rating (crabgrass; Rate 62 g/ha, Postemergence): 0 | Plant response rating, Crabgrass (crabgrass; [4]): 1 | Plant response rating, Rape (rape; [1]): 0 | Plant response rating, Rape (rape; [2]): 0 | Plant response rating, Rape (rape; [3]): 0 | Rape plant response rating (0 to 10 scale) (rape; Preemergence, Rate 125 g/ha): 0 | Rape plant response rating (rape; Preemergence, Rate 250 g/ha): 0 | Rape plant response rating (rape; Preemergence, Rate 500 g/ha): 0 | Rape plant response rating (rape; Rate 62 g/ha, Postemergence): 0 | Plant response rating, Rape (rape; [4]): 0 | Plant response rating, Wheat (wheat; [1]): 0 | Plant response rating, Wheat (wheat; [2]): 0 | Plant response rating, Wheat (wheat; [3]): 0 | Wheat plant response rating (0 to 10 scale) (wheat; Preemergence, Rate 125 g/ha): 0 | Wheat plant response rating (wheat; Preemergence, Rate 250 g/ha): 0 | Wheat plant response rating (wheat; Preemergence, Rate 500 g/ha): 0 | Wheat plant response rating (wheat; Rate 62 g/ha, Postemergence): 0 | Plant response rating, Wheat (wheat; [4]): 0 | Plant response rating, Nutsedge (purple nutsedge; [1]): 0 | Plant response rating, Nutsedge (purple nutsedge; [2]): 0 | Plant response rating, Nutsedge (purple nutsedge; [3]): 0 | Nutsedge plant response rating (0 to 10 scale) (purple nutsedge; Preemergence, Rate 125 g/ha): 0 | Nutsedge plant response rating (purple nutsedge; Preemergence, Rate 250 g/ha): 0 | Nutsedge plant response rating (purple nutsedge; Preemergence, Rate 500 g/ha): 0 | Nutsedge plant response rating (purple nutsedge; Rate 62 g/ha, Postemergence): 0 | Plant response rating, Nutsedge (purple nutsedge; [4]): 0 | Plant response rating, Morningglory (morningglory; [1]): 0 | Plant response rating, Morningglory (morningglory; [2]): 0 | Plant response rating, Morningglory (morningglory; [3]): 0 | Morningglory plant response rating (0 to 10 scale) (morningglory; Preemergence, Rate 125 g/ha): 0 | Morningglory plant response rating (morningglory; Preemergence, Rate 250 g/ha): 0 | Morningglory plant response rating (morningglory; Preemergence, Rate 500 g/ha): 0 | Morningglory plant response rating (morningglory; Rate 62 g/ha, Postemergence): 0 | Plant response rating, Morningglory (morningglory; [4]): 0 | Plant response rating, Soybean (soybean; [1]): 3 | Plant response rating, Soybean (soybean; [2]): 4 | Plant response rating, Soybean (soybean; [3]): 0 | Soybean plant response rating (0 to 10 scale) (soybean; Preemergence, Rate 125 g/ha): 0 | Soybean plant response rating (soybean; Preemergence, Rate 250 g/ha): 0 | Soybean plant response rating (soybean; Preemergence, Rate 500 g/ha): 0 | Soybean plant response rating (soybean; Rate 62 g/ha, Postemergence): 1 | Plant response rating, Soybean (soybean; [4]): 5 | Plant response rating, Wild oats (wild oat; [1]): 0 | Plant response rating, Wild oats (wild oat; [2]): 0 | Plant response rating, Wild oats (wild oat; [3]): 0 | Wild oats plant response rating (0 to 10 scale) (wild oat; Preemergence, Rate 125 g/ha): 0 | Wild oats plant response rating (wild oat; Preemergence, Rate 250 g/ha): 0 | Wild oats plant response rating (wild oat; Preemergence, Rate 500 g/ha): 4 | Wild oats plant response rating (wild oat; Rate 62 g/ha, Postemergence): 0 | Plant response rating, Wild oats (wild oat; [4]): 0 | Plant response rating, Bedstraw (bedstraw; Rate 250 g/ha, scale 0 to 10, 0 is no effect, 10 is complete control): 4 | Plant response rating, Bedstraw (bedstraw; Rate 500 g/ha, scale 0 to 10, 0 no effect, 10 complete control): 4 | Plant response rating, Redroot pigweed (pigweed; [1]): 0 | Plant response rating, Redroot pigweed (pigweed; [2]): 0 | Plant response rating, Redroot pigweed (pigweed; [3]): 0 | Redroot pigweed plant response rating (0 to 10 scale) (pigweed; Preemergence, Rate 125 g/ha): 0 | Redroot pigweed plant response rating (pigweed; Preemergence, Rate 250 g/ha): 0 | Redroot pigweed plant response rating (pigweed; Preemergence, Rate 500 g/ha): 0 | Redroot pigweed plant response rating (pigweed; Rate 62 g/ha, Postemergence): 0 | Plant response rating, Redroot pigweed (pigweed; [4]): 0 | Plant response rating, Velvetleaf (velvetleaf; [1]): 0 | Plant response rating, Velvetleaf (velvetleaf; [2]): 0 | Plant response rating, Velvetleaf (velvetleaf; [3]): 0 | Velvetleaf plant response rating (0 to 10 scale) (velvetleaf; Preemergence, Rate 125 g/ha): 0 | Velvetleaf plant response rating (velvetleaf; Preemergence, Rate 250 g/ha): 0 | Velvetleaf plant response rating (velvetleaf; Preemergence, Rate 500 g/ha): 0 | Velvetleaf plant response rating (velvetleaf; Rate 62 g/ha, Postemergence): 0 | Plant response rating, Velvetleaf (velvetleaf; [4]): 0 | Plant response rating, B. signalgrass (surinam grass; [1]): 0 | Plant response rating, B. signalgrass (surinam grass; [2]): 0 | Plant response rating, B. signalgrass (surinam grass; [3]): 0 | B. signalgrass plant response rating (0 to 10 scale, 0 is no effect, 10 is complete control) (surinam grass; Preemergence, Rate 125 g/ha): 0 | B. signalgrass plant response rating (surinam grass; Preemergence, Rate 250 g/ha): 2 | B. signalgrass plant response rating (surinam grass; Preemergence, Rate 500 g/ha): 6 | B. signalgrass plant response rating (surinam grass; Rate 62 g/ha, Postemergence): 0 | Plant response rating, B. signalgrass (surinam grass; [4]): 0

— patent US6737383B1, “Herbicidal oxadiazolidines” (priority 1999, dated 2004)
